Data from patent publication US10292972B1, “Pharmaceutical composition for treating cancer and a method thereof” (King Abdulaziz University, priority 2017, dated 2019).

Experiments:
MCF7 breast cancer cells [1] = test: cells; type: cell-based, human
Description: (§1) MCF7, a breast cancer cell line was procured from the American Type Culture Collection (ATCC) and propagated in Dulbecco's Modified Eagle's medium (DMEM) supplemented with 10% (v/v) fetal bovine serum (FBS), 100 μg/ml streptomycin and 100 U/ml penicillin at 37° C. in a humidified incubator with 5% CO2. Human pancreatic cell lines, AsPC1 and PANC1, were obtained from the American Type Culture Collection (ATCC). AsPC1 cell line was grown in RPMI-1640 medium supplemented with 10% (v/v) fetal bovine serum (FBS), 100 μg/ml streptomycin and 100 U/ml penicillin. PANC1 cell line was cultured in DMEM supplemented with 10% (v/v) fetal bovine serum (FBS), 100 μg/ml streptomycin and 100 U/ml penicillin.
MCF7 cells (2×10^4 cells/well) were sub-cultured in 24-well plate and incubated at 37° C. in a humidified incubator with 5% CO2 for 20 hrs. […] After the drug treatment, cells were analysed under phase contrast microscope. […]
MCF7 cells (2×10^4 cells/well) were treated with 3 μM, 30 μM, 300 μM, 600 μM, 1.5 mM of isopicrinine at 37° C. in a humidified incubator with 5% CO2 for 20 hrs. After the drug treatment, cells were analysed under phase contrast microscope. Cytotoxicity was detected at 300 μM concentration onwards in all the samples. […] The nuclear morphological changes, which are mainly associated with apoptosis were analysed by Hoechst 33342 staining. […]

AsPC1 cell line = test: cells; type: cell-based; conditions: Homo sapiens, ASPC1, 24 h, read-out: % Cell viability
Description: as §1
(§2) PANC1 and AsPC1 cells (1.3×10^4 cells/well) were sub-cultured in 96-well plates and incubated at 37° C. in a humidified incubator with 5% CO2 for 24 hrs. Varying concentrations of isopicrinine (i.e., 0, 30 μM, 75 μM, 150 μM and 300 μM were added to the cultured cells and further incubated at 37° C. in a humidified incubator with 5% CO2 for 24 hrs. The cell viability was determined using MTT (3-(4,5-dimethylthiazol-2-yl)-2,5-diphenyltetrazolium bromide) assay by following the manufacturer's instructions. Briefly, 20 μl/well of MTT was added to the cells and plates were incubated for 4 hrs. After the incubation, media along with the MTT was removed and 150 μl/well of isopropanol was added and further incubated for 15 min on shaker incubator. Spectrophotometer readings were taken at 450 nm and 630 nm. This assay is based on the conversion of yellow tetrazolium salt MTT to purple formazan crystal by metabolically active cells. The amount of formazan produced is proportional to the number of viable cells.

PANC1 cell line = test: cells; type: cell-based; conditions: Homo sapiens, PANC-1, 24 h, read-out: % Cell Viability
Description: as §1, §2

MCF7 breast cancer cells [2] = test: Hoechst 33342 staining of nuclear morphological changes (apoptosis); type: cell-based, human; conditions: MCF7, 150 μM, 24 hrs, FIG. 3B
Description: MCF7 cells (2×10^4 cells/well) were treated with 3 μM, 30 μM, 300 μM, 600 μM, 1.5 mM of isopicrinine at 37° C. in a humidified incubator with 5% CO2 for 20 hrs. After the drug treatment, cells were analysed under phase contrast microscope. Cytotoxicity was detected at 300 μM concentration onwards in all the samples. […] The nuclear morphological changes, which are mainly associated with apoptosis were analysed by Hoechst 33342 staining. Briefly, MCF7 cells (2×10^4 cells/well) were grown on coverslips and treated with 150 μM of purified alkaloid for 24 hrs. The cells were washed with Dulbecco's phosphate buffer saline (DPBS) and fixed with 100% methanol for 15 min at room temperature. Cells were washed with DPBS and stained with Hoechst 33342 for 15 min at room temperature. The cells were washed thrice with DPBS and analysed under fluorescent microscope (Nikon, Japan).

MCF7 breast cancer cells [3] = test: RNA-Seq gene expression profiling of isopicrinine-treated MCF7 cells; type: cell-based, human; conditions: for number of upregulated genes / number of downregulated genes: vs DMSO-treated control, P value <0.05; for number of downregulated genes: fold change <−1
Description: MCF7 cells (1.6×10^5 cells) were treated with varying doses (sub-lethal) of purified isopicrinine i.e., 30 μM and 150 μM, in triplicates, for 18 hrs at 37° C. Total RNA was extracted using TRIzol reagent. Gene expression analyses of drug-treated MCF7 cells in the presence of sub-lethal concentrations of isopicrinine were performed using Illumina HiSeq. Each RNA was ribo-depleted (Ribo-Zero, Epicentre) prior to cDNA libarary preparation (ScriptSeq epicenter). Each cDNA was separately barcode tagged during library preparation, and sequenced in multiplex generating approximately >40 million 100 bp reads per sample for the mammalian cell line. The Illumina reads were mapped to their respective assembled reference transcriptome sequence using the mapping software TopHat and Cufflinks (Trapnell, C., Pachter, L., Salzberg, S. L. 2009. TopHat: discovering splice junctions with RNA-Seq. Bioinformatics, May 1; 25(9):1105-11. doi: 10.1093/bioinformatics/btp120, incorporated herein by reference in its entirety). Illumina read abundances mapping to each reference contig was normalized using the RPKM (reads per Kb per million reads) calculation. Differentially expressed transcripts were identified and functionally annotated using a variety of statistical analyses available via bioconductor in R language (Durinck, S., Moreau, Y., Kasprzyk, A., Davis, S., De Moor, B., Brazma, A., Huber, W. 2005. BioMart and Bioconductor: a powerful link between biological databases and microarray data analysis. Bioinformatics, 21(16), 3439-3440. doi: 10.1093/bioinformatics/bti525, incorporated herein by reference in its entirety). Clusters of differentially expressed and cycling transcripts were annotated to identify over-represented GO/KEGG pathways (Kanehisa, M., Goto, S., Sato, Y., Furumichi, M., Tanabe, M., 2012. KEGG for integration and interpretation of large-scale molecular data sets. Nucleic Acids Res., 40 (Database issue), D109-14. doi: 10.1093/nar/gkr988, incorporated herein by reference in its entirety).
MCF7 cell line was treated with sub-lethal doses of 30 μM and 150 μM of isopicrinine. […] RNA-Seq transcription profiling was performed for analyzing the transcriptome profile in alkaloid treated MCF7 cells in order to evaluate the pharmacological effects of the new alkaloid isolated from Rhazya stricta. To identify the differentially regulated/expressed genes after treatment with isopicrinine, RNA was extracted from alkaloid treated MCF7 cells (30 μM and 150 μM doses) and DMSO-treated control cells and RNA-Seq experiment was carried out. The sequencing data were compared and analyzed to identify the differentially expressed genes in mammalian cells after treatment with isopicrinine.

MCF7 breast cancer cells [4] = test: as above; type: cell-based, human; conditions: MCF7, 30 μM and 150 μM
[5] = MCF7, vs DMSO control, Cell divsion, dose not given
[6] = MCF7, vs DMSO control, Chromosone Organization, dose not given
[7] = MCF7, vs DMSO control, Cytoskeleton, dose not given
[8] = MCF7, vs DMSO control, DNA repair, dose not given
[9] = MCF7, vs DMSO control, DNA replication, dose not given
[10] = MCF7, vs DMSO control, Induction of apoptosis, dose not given
[11] = MCF7, vs DMSO control, Regulation of cell growth, dose not given
[12] = MCF7, vs DMSO control, Regulation of transcription, dose not given
[13] = MCF7, vs DMSO control, Response to DNA damage stimulus, dose not given

## C/C=C1\CN2[C@H]3C[C@@H]1[C@@H](C(=O)OC)[C@]14C[C@H]2O[C@]31Nc1ccccc14 [isopicrinine]
MCF7 breast cancer cells [1]; Homo sapiens, MCF7, 20 h, read-out: IC50 value (cytotoxic activity against MCF7 cells)
  IC50: 240 µM
MCF7 breast cancer cells [1]; MCF7, FIGS. 2D-2F (300, 600, 1,500 μM)
  cell morphology after treatment with high doses: cell shrinkage, cellular detachment and loss of adherent morphology
AsPC1 cell line
  viability at 30 µM: 87.7%
  viability at 75 µM: 55.9%
  viability at 150 µM: 53.5%
  viability at 300 µM: 42.4%
PANC1 cell line
  viability at 30 µM: 74.5%
  viability at 75 µM: 70.8%
  viability at 150 µM: 69.6%
  viability at 300 µM: 64.6%
MCF7 breast cancer cells [2]
  nuclear morphology, Hoechst 33342 staining: chromatin condensation and nuclear fragmentation
MCF7 breast cancer cells [3]; MCF7
  expression of Mxi1 gene: significantly upregulated
MCF7 breast cancer cells [3]; MCF7, 30 μM
  expression of cell cycle and cell proliferation genes (CDC6, CDK1, CDCA5, DLGAP5, NUSAP1, KIF23, PRC1, BIRC5, AURKB, NDC80, CDC45): not affected
  number of upregulated genes: 148 genes
  number of downregulated genes: 64 genes
MCF7 breast cancer cells [3]; MCF7, 30 μM and 150 μM, 18 hrs
  cytotoxicity at sub-lethal doses: No cytotoxicity was detected
MCF7 breast cancer cells [3]; MCF7, 150 μM
  expression of cell cycle and cell proliferation genes (CDC6, CDK1, CDCA5, DLGAP5, NUSAP1, KIF23, PRC1, BIRC5, AURKB, NDC80, CDC45): significantly downregulated
  number of downregulated genes: 59 genes
MCF7 breast cancer cells [3]; MCF7, 150 μM, fold change >1
  number of upregulated genes: 36 genes
MCF7 breast cancer cells [3]; MCF7, high dose
  expression of cell division and mitosis genes (PTTG1, DLGAP5, Cdc6, NDC80, KIF15, KIF23, PRC1, NUSAP1, Aurora B kinase, CDCA5, ATAD2): downregulated
MCF7 breast cancer cells [3]; MCF7, sub-lethal dose, FIG. 5
  expression of pro-apoptotic gene PUMA (BBC3): upregulated
MCF7 breast cancer cells [3]; MCF7, sub-lethal doses
  expression of survivin (BIRC5): Downregulation
MCF7 breast cancer cells [3]; [5]
  log2 (fold change) ASPM: −1.3045
  log2 (fold change) AURKB: −1.646
  log2 (fold change) BIRC5: −0.9572
  log2 (fold change) CDC6: −2.322
  log2 (fold change) CDCA5: −1.551
  log2 (fold change) CDK1: −1.149
  log2 (fold change) FBXO5: −1.067
  log2 (fold change) KIF23: −0.905
  log2 (fold change) NCAPG: −1.314
  log2 (fold change) NCAPH: −1.018
  log2 (fold change) NDC80: −1.343
  log2 (fold change) NUSAP1: −1.539
  log2 (fold change) PRC1: −1.527
  log2 (fold change) PTTG1: −1.05
  log2 (fold change) SGOL1: −1.044
MCF7 breast cancer cells [3]; [6]
  log2 (fold change) DLGAP5: −1.263
  log2 (fold change) ESPL1: −1.9647
  log2 (fold change) H2AFZ: −0.952
  log2 (fold change) HIST1H1B: −2.278
  log2 (fold change) HIST1H2AJ, HIST1H2AK: −2.034
  log2 (fold change) HIST1H2AM, HIST1H3J: −2.034
  log2 (fold change) HIST1H2BL: −2.032
  log2 (fold change) HIST2H2AA4, HIST2H2AC: −1.505
  log2 (fold change) HIST2H2AB: −2.144
  log2 (fold change) HIST2H2BF: −1.757
  log2 (fold change) HIST2H3C: −2.716
  log2 (fold change) HIST2H3PS2: −1.3321
  log2 (fold change) HIST2H4A: −2.138
MCF7 breast cancer cells [3]; [7]
  log2 (fold change) AGBL2: 2.627
  log2 (fold change) DLG2: 2.268
  log2 (fold change) DRP2: 2.047
  log2 (fold change) KRT81: 1.797
  log2 (fold change) PTP4A1: 1.331
MCF7 breast cancer cells [3]; [8]
  log2 (fold change) BRCA1: −1.076
  log2 (fold change) EXO1: −1.784
  log2 (fold change) RAD51AP1: −1.652
  log2 (fold change) UHRF1: −1.1337
MCF7 breast cancer cells [3]; [9]
  log2 (fold change) CDC45: −1.801
  log2 (fold change) MCM3: −1.644
  log2 (fold change) MCM4: −1.522
  log2 (fold change) MCM5: −1.878
  log2 (fold change) MCM6: −1.423
  log2 (fold change) MCM7: −1.716
  log2 (fold change) MCM8: −1.013
  log2 (fold change) MCM10: −1.321
  log2 (fold change) RFC3: −1.142
  log2 (fold change) RRM2: −1.2797
  log2 (fold change) TOP2A: −1.662
MCF7 breast cancer cells [3]; [10]
  log2 (fold change) BBC3: 1.481
  log2 (fold change) CDKN1A: 1.119
  log2 (fold change) INHBA: 1.026
  log2 (fold change) MAGED1: 0.8954
MCF7 breast cancer cells [3]; [11]
  log2 (fold change) LTBP4: 1.504
  log2 (fold change) SPP1: 1.075
  log2 (fold change) VGF: 0.9472
MCF7 breast cancer cells [3]; [12]
  log2 (fold change) ATAD2: −1.388
  log2 (fold change) ATAD5: −1.628
  log2 (fold change) ATF3: 1.3961
  log2 (fold change) BRIP1: −1.416
  log2 (fold change) EGR1: 1.39
  log2 (fold change) FHL2: 1.024
  log2 (fold change) MDM2: 1.725
  log2 (fold change) MXI1: 1.118
  log2 (fold change) MYBL2: −1.231
  log2 (fold change) NRG1: 0.8825
MCF7 breast cancer cells [3]; [13]
  log2 (fold change) BTG2: 1.485
  log2 (fold change) CCND1: 1.49
  log2 (fold change) DDB2: 1.191
  log2 (fold change) GADD45A: 1.333
MCF7 breast cancer cells [4]
  cell proliferation at low doses compared to DMSO control: prevented further cell proliferation
